pIC50: −log10 of the molar value. Where “and” joins values, the source holds several entries; their conditions need not be identical. Equal entries are not always repeated. Structures can show the parent of a compound that is named as a salt.
Legend:
[1] = system: oxazolone-induced mouse ear swelling; assay: Model for inhibition of topical inflammation (oxazolone-induced mouse ear swelling); format: in vivo; conditions: BALB/c mice, ear thickness 24 hours after oxazolone challenge
Description: Model for Inhibition of Topical Inflammation. […] Left ears were untreated. The thickness of both ears of each animal was measured with a Dyer model micrometer gauge 24 hours after oxazolone challenge, and the net increase in thickness of right ears versus left ears was calculated for each animal. Percent inhibition was calculated according to the formula: [(Iv−It)/Iv]×100, where Iv and It respectively refer to the average net increase in right ear thickness (mm) for vehicle and candidate compound treated mice.

[2] = system: LPS-induced TNF-α release from human peripheral blood mononuclear cells; assay: Whole cell LPS-stimulated TNF-α release assay; format: cell-based; conditions: inhibition of LPS-induced TNF-α release from human peripheral blood mononuclear cells by 50%
Description: The procedure as described in Welker et al., Int. Arch. Allergy and Immunol. 109:110-115 (1996) can be followed. Briefly, a candidate compound and/or vehicle can be preincubated with human peripheral blood mononuclear leukocytes (PBML, 5×10^5/ml) cells in AIM-V medium pH 7.4 for 2 hours. Lipopolysaccharide (LPS, 25 ng/ml) can be added to stimulate the cells, which can be incubated overnight at 37° C. TNF-α cytokine levels in the conditioned medium can then be quantitated using a sandwich ELISA kit.

[3] = target: T1, human recombinant p38α protein kinase (Homo sapiens, UniProt Q16539); assay: Human p38α MAP kinase inhibition assay (cell-free); format: biochemical; conditions: inhibition of phosphorylation of myelin basic protein by recombinant human p38α MAP kinase by 50%; Table III; read-out: IC50 p38α MAPK
T1 construct: purchased UBI (Upstate Biotechnology) 14-251; host or cells: E. coli
Description: In vitro cell-free p38α MAP kinase inhibition assays were conducted by the method as described in Clerk et al., FEBS Lett., 426:93-96 (1998) for a number of lactones in formulas I/IIa/IIb. Briefly, human recombinant p38α protein kinase expressed in E. coli (UBI #14-251) was used. Myelin basic protein (MBP, UBI #13-110) was employed as substrate, and microtiter plate wells were coated with MBP (0.01 mg/ml) overnight at 4° C. Candidate compound and/or vehicle was preincubated with 0.075 μg/mL enzyme in modified HEPES buffer pH 7.4 at 25° C. for 15 minutes. The reaction was initiated by addition of 100 μM ATP and allowed to proceed for another 60 minutes. The reaction was terminated by aspirating the solution. Phosphorylated MBP was detected by incubation with a mouse monoclonal IgG2a anti-phosphoMBP antibody. Bound anti-phosphoMBP antibody was quantitated by incubation with a HRP conjugated goat anti-mouse IgG.

[4] = target: T2, rat liver HMG-CoA reductase (Rattus norvegicus, UniProt P51639); assay: Cell-free HMG-CoA reductase inhibition assay; format: biochemical; conditions: concentration required to inhibit rat liver HMG-CoA reductase by 50%; read-out: IC50 HMG-CoA R
T2 sequence (P51639 1-887): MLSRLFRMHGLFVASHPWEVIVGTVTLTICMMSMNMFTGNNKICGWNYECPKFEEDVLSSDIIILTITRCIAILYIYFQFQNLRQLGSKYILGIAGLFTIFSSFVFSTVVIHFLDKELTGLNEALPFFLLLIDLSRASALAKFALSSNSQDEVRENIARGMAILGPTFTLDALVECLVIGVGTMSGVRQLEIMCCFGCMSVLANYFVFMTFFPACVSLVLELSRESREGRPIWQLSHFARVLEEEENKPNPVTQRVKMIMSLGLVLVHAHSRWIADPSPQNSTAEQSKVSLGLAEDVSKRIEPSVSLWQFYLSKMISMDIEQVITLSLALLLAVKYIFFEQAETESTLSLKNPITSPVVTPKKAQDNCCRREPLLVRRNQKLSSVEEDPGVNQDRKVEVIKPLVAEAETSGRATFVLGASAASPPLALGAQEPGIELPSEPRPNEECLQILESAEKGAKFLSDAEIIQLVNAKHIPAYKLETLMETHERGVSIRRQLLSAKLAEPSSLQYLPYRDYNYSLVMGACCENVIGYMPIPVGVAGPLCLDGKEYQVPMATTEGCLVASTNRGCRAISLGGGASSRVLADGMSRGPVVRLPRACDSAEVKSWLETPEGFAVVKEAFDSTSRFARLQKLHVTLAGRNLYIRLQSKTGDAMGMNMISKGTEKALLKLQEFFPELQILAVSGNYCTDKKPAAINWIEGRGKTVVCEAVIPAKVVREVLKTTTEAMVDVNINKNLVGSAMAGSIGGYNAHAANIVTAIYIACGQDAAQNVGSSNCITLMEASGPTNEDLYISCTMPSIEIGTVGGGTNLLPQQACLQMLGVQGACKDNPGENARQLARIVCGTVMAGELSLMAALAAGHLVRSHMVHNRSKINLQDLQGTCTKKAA
Description: An example of a cell-free HMG-CoA reductase assay involves radiometric procedures described in Shum et al., Ther. Drug Monit. 20:41-49 (1998), incorporated herein by reference. Briefly, about 150 μg/mL of HMG-CoA reductase can be incubated with a candidate compound, together with about 12 μM [^14C]HMG-CoA and about 200 μM NADPH in about 200 μL 0.2M phosphate buffer (pH about 7.2) for about 0.5 h at about 37° C. The [^14C]mevalonate that forms can be converted under acidic conditions to [^14C]mevalonolactone and separated from un-reacted substrate, for example, by ion-exchange chromatography, and then quantified, for example, by liquid scintillation counting.

[5] = dose 2 × 0.3 mg topical to right ear
[6] = dose 2 × 1 mg topical to right ear
[7] = dose 2 × 2 mg topical to right ear

T1 sequence (Q16539 whole entry): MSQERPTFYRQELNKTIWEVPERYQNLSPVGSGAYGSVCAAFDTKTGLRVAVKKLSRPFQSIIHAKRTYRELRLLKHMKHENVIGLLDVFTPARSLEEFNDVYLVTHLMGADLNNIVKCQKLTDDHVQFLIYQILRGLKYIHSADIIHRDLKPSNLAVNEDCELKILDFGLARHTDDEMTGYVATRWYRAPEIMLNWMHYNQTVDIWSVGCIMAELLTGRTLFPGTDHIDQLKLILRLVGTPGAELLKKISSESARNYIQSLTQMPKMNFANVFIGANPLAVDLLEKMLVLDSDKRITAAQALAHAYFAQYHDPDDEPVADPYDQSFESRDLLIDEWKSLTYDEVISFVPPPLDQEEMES

Question: What does the source list for `CC(C)c1c(C(=O)Nc2ccccc2)c(-c2ccccc2)c(-c2ccc(F)cc2)n1CC[C@@H]1C[C@@H](O)CC(=O)O1` [Atorvastatin lactone]?
Answer: % Inh. [1, 5]: 40%; % Inh. ([1]; dose 2 × 0.3 mg topical to right ear, listed as atorvastatin lactone): 50% and 58% and 40%; % Inh. [1, 6]: 58%; % Inh. [1, 7]: 50%

Question: For `CC(C)c1c(C(=O)Nc2ccccc2)c(-c2ccccc2)c(-c2ccc(F)cc2)n1CC[C@@H](O)C[C@@H](O)CC(=O)O` [Atorvastatin sodium], which “% Inh.” value [1, 5] is on record?
Answer: 9%

Question: What about the “% Inh.” value [1, 6] of the same molecule?
Answer: 31%

Question: What about the “% Inh.” value [1, 7] of the same molecule?
Answer: 63%

Question: How did the pIC50 [2] turn out when `CCC(C)c1nn(-c2ccnc(Nc3ccccc3)c2)c(-c2ccc(F)cc2)c1/C=C/[C@@H](O)C[C@@H](O)CC(=O)O` (stereo partly drawn) [Example 10a, (3R,5S,E)-7-(3-sec-butyl-5-(4-fluorophenyl)-1-(2-(phenylamino)pyridin-4-yl)-1H-pyrazol-4-yl)-3,5-dihydroxyhept-6-enoic acid calcium salt] was run?
Answer: 4.68

Question: And the pIC50 [3]?
Answer: 4.96

Question: What about the pIC50 [4] of the same molecule?
Answer: 8.52

Question: `O=C(O)C[C@H](O)C[C@H](O)CCc1c(-c2ccccc2)nn(-c2ccnc(Nc3ccccc3)n2)c1-c1ccccc1` [Example 11c, (3R,5R)-7-(3,5-diphenyl-1-(2-(phenylamino)pyrimidin-4-yl)-1H-pyrazol-4-yl)-3,5-dihydroxyheptanoic acid] was tested. Which pIC50 [2] did it give?
Answer: 4.74

Question: With `CC(C)n1c(/C=C/C(O)CC(O)CC(=O)O)c(-c2ccc(F)cc2)c2ccccc21` (centres unmarked) [Fluvastatin sodium] as the molecule, how does the “% Inh.” value [1, 5] read?
Answer: 28%

Question: Which “% Inh.” value [1, 5] does the source give for `COc1ccc2c(c1)c(CC(=O)O)c(C)n2C(=O)c1ccc(Cl)cc1` [Indomethacin] here?
Answer: 44%

Question: Which results are given for `O=C([O-])C[C@H](O)C[C@H](O)/C=C/c1c(C2CC2)nc2ccccc2c1-c1ccc(F)cc1.O=C([O-])C[C@H](O)C[C@H](O)/C=C/c1c(C2CC2)nc2ccccc2c1-c1ccc(F)cc1.[Ca+2]` [Pitavastatin calcium]?
Answer: % Inh. [1, 5]: 9%; % Inh. [1, 7]: 60%

Question: With `CC[C@H](C)C(=O)O[C@H]1C[C@H](O)C=C2C=C[C@H](C)[C@H](CC[C@@H](O)C[C@@H](O)CC(=O)O)[C@H]21` [Pravastatin sodium] as the molecule, how does the “% Inh.” value [1, 5] read?
Answer: 24%

Question: `CC(C)c1nc(N(C)S(C)(=O)=O)nc(-c2ccc(F)cc2)c1/C=C/[C@@H](O)C[C@@H](O)CC(=O)O` [Rosuvastatin sodium] was tested. Which “% Inh.” value [1, 5] did it give?
Answer: 20%
